Measurements reported in patent US6159700A, “Method of finding agonist and antagonist to human and rat GPR14” (SmithKline Beecham Corporation, priority 1999, dated 2000).
Changes are numbered by the printed parent chain. Bridge positions count the residues as written; N and C are the ends. Peptide text beside a SMILES is read from it.

Assays:
rat GPR14 receptor [1] = molecular target: T1, rat GPR14 receptor (Rattus norvegicus, UniProt P49684); assay: Binding to rat GPR14 receptor; conditions: compared with Human GPR14
T1 sequence (P49684 1-386): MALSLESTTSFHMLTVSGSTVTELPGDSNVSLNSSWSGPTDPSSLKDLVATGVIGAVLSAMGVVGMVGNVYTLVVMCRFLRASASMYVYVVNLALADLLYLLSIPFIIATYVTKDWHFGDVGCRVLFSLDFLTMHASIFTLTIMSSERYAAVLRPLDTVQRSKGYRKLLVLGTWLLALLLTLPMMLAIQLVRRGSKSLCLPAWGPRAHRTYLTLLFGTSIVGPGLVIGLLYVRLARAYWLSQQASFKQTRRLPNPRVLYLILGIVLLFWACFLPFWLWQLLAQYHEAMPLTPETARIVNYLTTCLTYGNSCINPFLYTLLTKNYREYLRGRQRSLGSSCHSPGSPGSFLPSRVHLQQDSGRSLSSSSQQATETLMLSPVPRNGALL
Excerpt: Ligand binding assays provide a direct method for ascertaining receptor pharmacology and are adaptable to a high throughput format. The purified ligand for a receptor is radiolabeled to high specific activity (50-2000 Ci/mmol) for binding studies. […] Assay conditions for buffers, ions, pH and other modulators such as nucleotides are optimized to establish a workable signal to noise ratio for both membrane and whole cell receptor sources. For these assays, specific receptor binding is defined as total associated radioactivity minus the radioactivity measured in the presence of an excess of unlabeled competing ligand. Where possible, more than one competing ligand is used to define residual nonspecific binding.

intact primate = assay: Effects in the intact primate; assay type: in vivo
Vasoconstrictor potency = conditions: mammalian
Human GPR14 = molecular target: T2, Human GPR14 (human); assay: cell-based or functional assay
T2 chain: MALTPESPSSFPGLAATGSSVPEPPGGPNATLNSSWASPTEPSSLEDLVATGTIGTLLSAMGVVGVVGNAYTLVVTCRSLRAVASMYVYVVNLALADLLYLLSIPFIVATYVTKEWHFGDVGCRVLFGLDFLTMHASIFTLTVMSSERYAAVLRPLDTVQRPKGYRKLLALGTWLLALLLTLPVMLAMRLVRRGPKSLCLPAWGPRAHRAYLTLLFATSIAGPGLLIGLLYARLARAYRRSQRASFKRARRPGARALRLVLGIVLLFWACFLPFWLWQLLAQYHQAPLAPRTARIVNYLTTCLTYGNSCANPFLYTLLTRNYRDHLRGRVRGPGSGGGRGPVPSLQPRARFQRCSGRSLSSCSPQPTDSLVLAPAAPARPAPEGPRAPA

Rat GPR14 receptor [2] = molecular target: T3, Rat GPR14 receptor (rat); assay: cell-based or functional assay
T3 chain: T1 sequence (P49684 1-386) with F315L

Which “binding to rat GPR14 receptor” value (rat GPR14 receptor [1]) does the source give for `CC(C)[C@H](NC(=O)[C@@H]1CSSC[C@H](NC(=O)[C@H](CC(=O)O)NC(=O)[C@H](C)NC(=O)[C@@H](NC(=O)CNC(=O)[C@H](C)N)[C@@H](C)O)C(=O)N[C@@H](Cc2ccccc2)C(=O)N[C@@H](Cc2c[nH]c3ccccc23)C(=O)N[C@@H](CCCCN)C(=O)N[C@@H](Cc2ccc(O)cc2)C(=O)N1)C(=O)O` [fish urotensin II] (H-AGTADCFWKYCV-OH; disulfide 6-11 (inferred); N-terminus and C-terminus assumed) here?
The value was “binds equally well to rat GPR14 receptor”.

With `CC(C)[C@H](NC(=O)[C@@H]1CSSC[C@H](NC(=O)[C@H](CC(=O)O)NC(=O)[C@@H]2CCCN2C(=O)[C@@H](NC(=O)[C@@H](N)CCC(=O)O)[C@@H](C)O)C(=O)N[C@@H](Cc2ccccc2)C(=O)N[C@@H](Cc2c[nH]c3ccccc23)C(=O)N[C@@H](CCCCN)C(=O)N[C@@H](Cc2ccc(O)cc2)C(=O)N1)C(=O)O` [human urotensin II] as the molecule, how does the “cardiovascular effects in vivo” value (intact primate) read?
Its value is “induces systemic vasoconstriction, myocardial contractile dysfunction and, ultimately, lethal arrhythmias”.

And the “binding to rat GPR14 receptor” value (rat GPR14 receptor [1])?
Its value is “binds equally well to rat GPR14 receptor”.

And the vasoconstrictor potency (Vasoconstrictor potency)?
Its vasoconstrictor potency is “most potent mammalian vasoconstrictor identified to date”.

B1: Human urotensin II (peptide)
peptide: ETPDCFWKYCV
With B1 as the molecule, how does the “EC50 of calcium mobilization” value (Human GPR14) read?
Its value is 0.1 to 0.2 nM.

B2: Fish urotensin II (peptide)
peptide: AGTADCFWKYCV
For B2, which “EC50 of calcium mobilization (FLIPR)” value (Rat GPR14 receptor [2]) is on record?
The value was 0.8 nM.

And the “EC50 of calcium mobilization (FLIPR)” value (Human GPR14)?
Its value is 0.5 nM.
